Assay results: US10308631B2, “Selective anti-cancer compounds” (NATIONAL UNIVERSITY OF SINGAPORE, priority 2015, dated 2019)

How the values were obtained:
[1] = tested on: mitotic marker phospho-histone H3 at serine 10 (pH3 (Ser10)) in transformed BJ cells; experiment: Immunoblot analysis of mitotic marker pH3 (Ser10), derivatives of Compound 1; format: cell-based; conditions: Homo sapiens, band intensities pH3(Ser10)/β-actin vs DMSO control, 24 h
Description: (§1) FIG. 4 compares the ability of Compound 1 (a131), and various derivatives thereof (referred to using their code numbers for brevity; the designated chemical compound for each code number is provided in the chemical examples section below), to inhibit autophagy and/or mitosis. BJ transformed cells were treated with 5 μM of various Compounds as shown, for 24 h. Cells were harvested and total lysates were analysed by detecting the mitotic marker phospho-histone H3 at serine 10 (pH3 (Ser10)) and the autophagosome marker LC3. Antibodies raised against β-actin were used as an internal loading control.
(§2) The ability of Compound 1 to inhibit lysosome function was examined using immunoblotting. HeLa cervical cancer cells were cultured in Dulbecco's modified Eagle's medium (DMEM) supplemented with 10% Fetal Bovine Serum (FBS, Thermo Scientific). The HeLa cells were treated with different concentrations of Compound 1 (0.625, 1.25, 2.5, 5 and 10 μM, dimethyl sulfoxide (DMSO, Kanto Kagaku)), chloroquine (CQ) (1.25, 2.5, 10, 50 and 100 μM, DMSO) or DMSO for 6 h. Then, the treated cells were harvested and lysed in 1% triton lysis buffer [25 mM Tris HCl (pH8.0), 150 mM NaCl, 1% triton-X100, 1 mM dithiothreitol (DTT), protease inhibitor mix (Complete Mini, Roche) and phosphatase inhibitor (PhosphoStop, Roche)]. The proteins in total lysates were boiled with sample buffer (60 mM Tris-HCl (pH 6.8), 25% glycerol, 2% SDS, 14.4 mM 2-mercaptoethanol, 0.1% bromophenol blue) and resolved by 14% tris-glycine sodium dodecyl sulfate polyacrylamide gel electrophoresis (SDS-PAGE) and subjected to immunoblot analysis.
(§3) Defects in lysosome function and inhibition of autophagy can be measured by accumulation of LC3-phosphatidylethanolamine conjugated non-soluble form (LC3-II), which are converted from soluble LC3-I. Thus, antibodies raised against LC3 (Cell Signaling, Cat#4108) were used to determine lysosomal function and integrity. Antibodies raised against phosphorylated histone H3 at serine 10 residue (pH3) (Cell signaling, Cat#3377) were used as the marker for mitotic dysfunction and arrest. Antibodies raised against β-actin (Millipore, Cat#MAB1501) were used as an internal loading control. The inhibitory ability of Compound 1 was also quantitatively compared to CQ.
(§4) Derivatives of Compound 1 were tested to see if they had similar dual activity, or presented only one of the activities of Compound 1. The protocol for immunoblot analysis described in Biology Example 1 was applied to the additional indicated compounds.
(§5) Activities of compounds were determined by two independent experiments. First, Compounds were classified according to the intensity of increase in each of the mitotic marker phospho-histone H3 at serine 10 (pH3 (Ser 10)) and the autophagosome marker LC3, respectively, at 1.25 μM, when compared with 1.25 μM Compound 1 (a131).
(§6) Compounds classified “++” on either “mitosis” or “inhibits lysosome” show similar increase in each of the mitotic marker phospho-histone H3 at serine 10 (pH3 (Ser10)) and the autophagosome marker LC3, respectively, at 2.5 μM, when compared with 1.25 μM Compound 1 (a131); and compounds classified “+” on either “mitosis” or “inhibits lysosome” show similar increase in each of the mitotic marker phospho-histone H3 at serine 10 (pH3 (Ser10)) and the autophagosome marker LC3, respectively, at a concentration range of 5-10 μM, when compared with 1.25 μM Compound 1 (a131).
Compounds classified “+/−” on either “mitosis” or “inhibits lysosome” show less increase in each of the mitotic marker phospho-histone H3 at serine 10 (pH3 (Ser10)) and the autophagosome marker LC3, respectively, at a concentration range of 5-10 μM, when compared with 1.25 μM Compound 1 (a131).
Next, the ability of Compound 1 and its derivatives to induce mitotic arrest in transformed BJ cells was quantified as the fold induction of band intensities [pH3(Ser10)/β-actin] in comparison with DMSO control. […]

[2] = tested on: autophagosome marker LC3 (LC3 II/LC3 I) in transformed BJ cells; experiment: Immunoblot analysis of autophagosome marker LC3 (lysosome function), derivatives of Compound 1; format: cell-based; conditions: Homo sapiens, band intensities LC3 II/LC3 I vs DMSO control, 24 h
Description: as §1, §2, §3, §4, §5, §6
Compounds classified “+/−” on either “mitosis” or “inhibits lysosome” show less increase in each of the mitotic marker phospho-histone H3 at serine 10 (pH3 (Ser10)) and the autophagosome marker LC3, respectively, at a concentration range of 5-10 μM, when compared with 1.25 μM Compound 1 (a131). […]

[3] = tested on: pH3 (Ser10) and LC3 in BJ transformed cells; experiment: Immunoblot classification of compounds by pH3 and LC3 (FIG. 4); format: cell-based, human; conditions: 5 μM, 24 h
Description: as §1, §4

## N#C/C(=C\c1cccc2cnccc12)c1cn(C(=O)CCNC(=O)CCCC[C@@H]2SC[C@@H]3NC(=O)N[C@@H]32)c2ccccc12 [Compound 24, N-(3-(3-((Z)-1-cyano-2-(isoquinolin-5-yl)vinyl)-1H-indol-1-yl)-3-oxopropyl)-5-((3aS,4S,6aR)-2-oxohexahydro-1H-thieno[3,4-d]imidazol-4-yl)pentanamide]
[1]
  fold induction at 5 µM: 3.2
[2]
  fold induction at 5 µM: 3.3
[3]
  Inhibition of lysosome function and/or mitosis (FIG. 4): exhibit the dual properties of inhibiting both lysosome function and mitosis

## C(=C\c1c[nH]c2ccccc12)/c1cncc2cnccc12 [Compound 26, 4-((E)-2-(1H-indol-3-yl)vinyl)-2,7-naphthyridine]
[1]
  fold induction at 5 µM: 1.2
[2]
  fold induction at 5 µM: 2.7
[3]
  Inhibition of lysosome function and/or mitosis (FIG. 4): inhibit lysosome function only

## C(=C\c1c[nH]c2ncccc12)/c1cccc2cnccc12 [Compound 27, 5-((E)-2-(1H-pyrrolo[2,3-b]pyridin-3-yl)vinyl)isoquinoline]
[1]
  fold induction at 5 µM: 1.2
[2]
  fold induction at 5 µM: 2
[3]
  Inhibition of lysosome function and/or mitosis (FIG. 4): inhibit lysosome function only

## COCCOCC(=O)n1cc(/C(C#N)=C/c2cccc3cnccc23)c2ccccc21 [Compound 30, (Z)-2-(1-(2-(2-methoxyethoxy)acetyl)-1H-indol-3-yl)-3-(isoquinolin-5-yl)acrylonitrile]
[1]
  fold induction at 5 µM: 12.8
[2]
  fold induction at 5 µM: 4.1
[3]
  Inhibition of lysosome function and/or mitosis (FIG. 4): exhibit the dual properties of inhibiting both lysosome function and mitosis

## N#C/C(=C\c1cccc2cnccc12)c1c[nH]c2cc(CN3CCCC3)ccc12 [Compound 31, (Z)-3-(isoquinolin-5-yl)-2-(6-((pyrrolidin-1-yl)methyl)-1H-indol-3-yl)acrylonitrile]
[1]
  fold induction at 5 µM: 1.1
[2]
  fold induction at 5 µM: 5.7
[3]
  Inhibition of lysosome function and/or mitosis (FIG. 4): inhibit lysosome function only

## N#C/C(=C\c1cccc2cnccc12)c1c[nH]c2ccc(CN3CCCC3)cc12 [Compound 32, (Z)-3-(isoquinolin-5-yl)-2-(5-((pyrrolidin-1-yl)methyl)-1H-indol-3-yl)acrylonitrile]
[1]
  fold induction at 5 µM: 1
[2]
  fold induction at 5 µM: 3.3
[3]
  Inhibition of lysosome function and/or mitosis (FIG. 4): inhibit lysosome function only

## N#C/C(=C\c1cccc2cnccc12)c1c[nH]c2c(CN3CCCC3)cccc12 [Compound 33, (Z)-3-(isoquinolin-5-yl)-2-(7-((pyrrolidin-1-yl)methyl)-1H-indol-3-yl)acrylonitrile]
[1]
  fold induction at 5 µM: 0.8
[2]
  fold induction at 5 µM: 3.7
[3]
  Inhibition of lysosome function and/or mitosis (FIG. 4): inhibit lysosome function only

## N#C/C(=C\c1cccc2cnccc12)c1n[nH]c2ccccc12 [Compound 34, (Z)-2-(1H-indazol-3-yl)-3-(isoquinolin-5-yl)acrylonitrile]
[1]
  fold induction at 5 µM: 1.4
[2]
  fold induction at 5 µM: 2
[3]
  Inhibition of lysosome function and/or mitosis (FIG. 4): inhibit lysosome function only
